Reference: ChEMBL document CHEMBL1201862, “PubChem BioAssay data set” (2004)
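How tested: cells in 96-well plates exposed to compound for 48 hours at five concentrations. GI50 marks 50% less growth.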 Calls of active or inactive are those of the source. Rule as the data show it: active = GI50 up to about 1.1 µM and inactive = higher.

What was measured:
Test in all cases: NCI anticancer screen, dose series, 48 h
[1] = test system: 786-0
[2] = test system: A549
[3] = test system: COLO 205
[4] = test system: DU-145
[5] = test system: HL-60
[6] = test system: KM12
[7] = test system: MCF7
[8] = test system: NCI-H226
[9] = test system: NCI-H23
[10] = test system: NCI/ADR-RES
[11] = test system: SF-295
[12] = test system: SNB-75
[13] = test system: T47D
[14] = test system: TK-10
[15] = test system: UACC-257
[16] = test system: UACC-62
[17] = test system: LOX IMVI
[18] = test system: HCC 2998

Compound	GI50 [1]	GI50 [2]	GI50 [3]	GI50 [4]	GI50 [5]	GI50 [6]	GI50 [7]	GI50 [8]	GI50 [9]	GI50 [10]	GI50 [11]	GI50 [12]	GI50 [13]	GI50 [14]	GI50 [15]	GI50 [16]	GI50 [17]	GI50 [18]
C=C(CCOC)CCC1CCCCC(=C)[C@H]1O (some centres not stated)	> 100 µM (inactive)	> 100 µM (inactive)	> 100 µM (inactive)	> 100 µM (inactive)	> 100 µM (inactive)	> 100 µM (inactive)	> 100 µM (inactive)	> 100 µM (inactive)	> 100 µM (inactive)	> 100 µM (inactive)	> 100 µM (inactive)	> 100 µM (inactive)	> 100 µM (inactive)	> 100 µM (inactive)	> 100 µM (inactive)	> 100 µM (inactive)		
CC1=C(O)C(=O)C2=C(C1=O)[C@@H]([C@@H](C)C/C=C/C(C)(C)O)CC[C@@H]2C	> 100 µM (inactive)	53.5 µM (inactive)	> 100 µM (inactive)	98.6 µM (inactive)	33.4 µM (inactive)	31.2 µM (inactive)	41.1 µM (inactive)	74.5 µM (inactive)	49.2 µM (inactive)	77.1 µM (inactive)	44.3 µM (inactive)		27.2 µM (inactive)		61.8 µM (inactive)	47.4 µM (inactive)	29.6 µM (inactive)	
COc1ccc(C(CC(=O)c2ccccc2)C(=O)c2ccc3c(c2)OCO3)cc1 (configuration not stated)	> 100 µM (inactive)	> 100 µM (inactive)	> 100 µM (inactive)	> 100 µM (inactive)	> 100 µM (inactive)	> 100 µM (inactive)	> 100 µM (inactive)	> 100 µM (inactive)	> 100 µM (inactive)	> 100 µM (inactive)	> 100 µM (inactive)	> 100 µM (inactive)	77.3 µM (inactive)	> 100 µM (inactive)	> 100 µM (inactive)	> 100 µM (inactive)		> 100 µM (inactive)
CCN(CC)C(=S)N/N=C(/C)c1cccc(/C(C)=N\NC(=S)N(CC)CC)n1	1.45 µM (inactive)	2.86 µM (inactive)	1.58 µM (inactive)	0.414 µM (active)	0.055 µM (active)	0.26 µM (active)	2.04 µM (inactive)	1.56 µM (inactive)	3.44 µM (inactive)	2 µM (inactive)	1.66 µM (inactive)	3.21 µM (inactive)	4.88 µM (inactive)	1.27 µM (inactive)	2.2 µM (inactive)	2.62 µM (inactive)	1.81 µM (inactive)	3.9 µM (inactive)
CC1(C)C(=O)C(C)(C)C1=S	> 100 µM (inactive)	> 100 µM (inactive)	> 100 µM (inactive)		> 100 µM (inactive)	> 100 µM (inactive)		> 100 µM (inactive)	> 100 µM (inactive)		> 100 µM (inactive)	18.6 µM (inactive)		> 100 µM (inactive)	> 100 µM (inactive)	> 100 µM (inactive)	> 100 µM (inactive)	> 100 µM (inactive)
CN1CCN(c2ccc3[nH]c(-c4ccc5[nH]c(-c6ccc(N(C)CCCl)cc6)nc5c4)nc3c2)CC1	0.13 µM (active)	0.286 µM (active)	0.17 µM (active)	0.183 µM (active)	< 0.01 µM (active)	0.811 µM (active)	< 0.01 µM (active)	0.705 µM (active)	0.25 µM (active)	40.6 µM (inactive)	1.76 µM (inactive)	0.152 µM (active)	0.174 µM (active)	2.87 µM (inactive)	1.66 µM (inactive)	0.15 µM (active)	0.0311 µM (active)	0.461 µM (active)
CCOP(=O)(C/C(O)=C1\C(=O)C(CCCNC(=O)OC(C)(C)C)N(Cc2ccc(OC)c(OC)c2)C1=O)OCC (configuration not stated)	> 100 µM (inactive)	> 100 µM (inactive)	> 100 µM (inactive)		> 100 µM (inactive)	> 100 µM (inactive)		77.4 µM (inactive)	> 100 µM (inactive)		> 100 µM (inactive)	> 100 µM (inactive)		> 100 µM (inactive)	> 100 µM (inactive)	> 100 µM (inactive)	> 100 µM (inactive)	> 100 µM (inactive)
